# How the values were obtained:
# D39x comC^- = experiment: in vitro recombination frequency, D39x comC^-; type: cell-based, Streptococcus pneumoniae; details: for HAT concentration to reduce the recombination frequency to below 5% of 0 trypsin: CSP incubated with HAT 30 min; for HAT concentration to reduce the recombination frequency to below 5% of 0 trypsin / PPT concentration to reduce the recombination frequency to below 5% of 0 trypsin: room temperature; for PPT concentration to reduce the recombination frequency to below 5% of 0 trypsin: CSP incubated with PPT 30 min; for reduction of recombination frequency upon incubation of modified CSP with trypsin-like proteases: both PPT and HAT, compared with unmodified CSP1
# Experimental: (§1) During culture incubation, porcine pancreatic trypsin (PPT; Sigma #T4799) was reconstituted in Hank’s balanced salt solution (Gibco) and incubated with either water or 4-(2-Aminoethyl) benzenesulfonyl fluoride hydrochloride (AEBSF; Cayman #14321) in a total volume of 50μL 30mM Tris, pH 8.5 and incubated for 15 minutes, room temperature. CSP1 or CSP2 was added, followed by incubation for 30 minutes, room temperature. When the culture reached OD620~0.08, 1 mL of culture was transferred to the PPT-AEBSF-CSP mixture and 2 μg of D39 Tn-seq library gDNA (D39 strains) or 2 μg of TIGR4 Tn-seq library gDNA (TIGR4 strains) was added. […] Upon addition of the culture, the final concentration of PPT ranged from 0–10 μg/mL, AEBSF was 0.1 mM, CSP was 3 μg/mL, and gDNA was 2 μg/mL. The transformation was incubated for 3 hours at 37°C, 5% CO2, followed by serial dilution and plating on two TSA blood plates and two TSA blood plates supplemented with 200 μg/mL spectinomycin. To observe low-frequency recombination events, 200 μL of the transformation was also spread plated on two TSA blood plates supplemented with 200 μg/mL spectinomycin. For transformations with HAT incubated CSP, HAT (Bio-techne R&D #2695-SE-010) was reconstituted in 25mM Tris, 150mM NaCl, pH 7.5. All incubation times and final concentrations were the same as for PPT; however, the volumes were 1/10th as that for PPT. For both PPT and HAT, the experiment was repeated at least three times.
# TIGR4 = experiment: in vitro recombination frequency, TIGR4; type: cell-based, Streptococcus pneumoniae; details: CSP2; PPT or HAT; 0.1 mM AEBSF
# Experimental: as §1, with “For both PPT and HAT, the experiment was repeated at least three times.” left out
# D39x = experiment: ex vivo recombination frequency with mouse lung homogenate, D39x; type: cell-based, Streptococcus pneumoniae; details: for ex vivo recombination frequency with homogenized lungs of mice treated in vivo: poly (I:C) 50 μL of 1 mg/mL IN daily 4 days, AEBSF 125 μg IN daily 3 days along with poly (I:C), 0 mM AEBSF ex vivo
# Experimental: To determine the impact of proteases from the lungs of mice on recombination frequency, a similar experimental setup as the in vitro recombination frequency was performed. […] During culture incubation, the lungs of 10-week-old female Balb/cJ mice (N = 7) were harvested and homogenized in 600 μL PBS. Lung homogenate was incubated with either water or AEBSF for 30 minutes, room temperature. 60 μL of lung homogenate-AEBSF mixture was transferred to a new tube. Addition of CSP1, culture, and gDNA and transformation was performed in the same manner as the in vitro recombination frequency. The final concentration of CSP was 3 μg/mL and gDNA was 2 μg/mL. The final concentration of AEBSF was 0mM, 1 mM, or 2mM. The lung from each mouse was divided into six transformations: D39x with lungs incubated with 0mM, 1 mM, or 2mM AEBSF and D39x comC^- with lungs incubated with 0mM, 1 mM, or 2mM AEBSF. As a control, the same culture of D39x and D39x comC^- were transformed with gDNA and CSP1 incubated with AEBSF in PBS. Recombination frequency of the transformation with CSP1 incubated with 1 mM and with 2 mM AEBSF were compared to that incubated with 0 mM AEBSF using Kruskal-Wallis one-way ANOVA in Graphpad 6.
# Lungs were harvested and homogenized in 600 μL PBS. The homogenates from all lungs were subjected to the ex vivo protocol described above and the recombination frequency of D39x and D39x comC^- subjected to lungs incubated with 0mM, 1 mM, or 2mM AEBSF and CSP1 was determined.
# [1] = tested on: serine proteases in mouse lung homogenates and sera; experiment: Protease levels (fluorescence of substrate BOC); type: biochemical; details: for Protease levels in lungs and sera of treated mice: poly (I:C) vs control mice (lungs and sera), AEBSF prior to poly (I:C) vs poly (I:C) alone (lungs)
# Experimental: For ex vivo experiments, the protease levels were measured from the same lung homogenate used in the ex vivo recombination frequency experiment, adapting the protocol from the HAT manufacturer (Bio-techne R&D). After the lungs were incubated with either water or AEBSF, 50 μL of lung homogenate mixture was transferred to a black, 96-well plate. 50 μL of substrate t-Butyloxycarbonyl Phe-Ser-Arg 7-amino-4methyl coumarin (Bachem # I1400) was added directly to the well, incubated for 10 minutes at room temperature, and fluorescence (380 excitation; 460 emission) was detected in a Biotek Cytation 3. Protease levels of lung homogenates incubated with 1 mM and 2 mM AEBSF were compared to that incubated with 0 mM AEBSF using one-way ANOVA and correlation between protease levels and recombination frequency was compared using two-tailed spearman in Graphpad 6.
# For in vivo experiments, homogenized lungs were further clarified after plating on TSA plates via centrifugation at 10,000xg, 5min. Sera was separated from whole blood via centrifugation at 10,000xg, 5 min in sera-collection tubes. The clarified homogenates and sera were transferred to a black, 96-well plate and 50 μL of substrate t-Butyloxycarbonyl Phe-Ser-Arg 7-amino-4methyl coumarin was added directly to the well and fluorescence (380 excitation; 460 emission) was detected in a Biotek Cytation 3. Protease levels of all groups were compared pairwise for each tissue using unpaired t test and correlation between protease levels and recombination frequency was compared using two-tailed spearman in Graphpad 6.
# DLA3 [2] = experiment: Growth (OD620) of DLA3; details: DLA3 with CSP1 incubated with trypsin with and without AEBSF (S1 Fig)
# Experimental: A similar protocol as the in vitro recombination frequency was followed. DLA3 was inoculated in C+Y at OD620~0.03. Either PPT or HAT was incubated with water or AEBSF for 15 minutes, room temperature, followed by incubation with CSP1 for thirty minutes in a total volume of 5 μL 30mM Tris, pH 8.5. When the culture reached OD620~0.08, cells were pelleted at 6,000xg, 5 min and resuspended in fresh C+Y. 100 μL of the culture was added to the Trypsin-AEBSF-CSP mixture, followed by transfer to a white-walled, clear-bottom 96-well plate and addition of 5 μL of 10 mg/mL luciferin (Sigma #L6882). Luminescence and OD620 measurements were taken every 30 minutes in a Biotek Cytation 3. Increasing concentrations of protease within each group (0 mM AEBSF or 0.1 mM AEBSF) were compared using two-way ANOVA in Graphpad 6.
# Absorbance at OD620 of DLA3 grown in the presence of CSP1 incubated with increasing concentrations of trypsin with and without inhibitor AEBSF. Incubation of CSP1 with PPT (A) without AEBSF or (B) with AEBSF. Incubation of CSP1 with HAT (C) without AEBSF or (D) with AEBSF. Experiment was repeated in triplicate. The mean value of OD620 of each 30-minute timepoint is reported; error bars are SEM.
# DLA3 [3] = experiment: Luminescence assay, DLA3 (PssbB-luc competence reporter); details: CSP1; 0.1 mM AEBSF
# Experimental: DLA3 was inoculated in C+Y at OD620~0.03. Either PPT or HAT was incubated with water or AEBSF for 15 minutes, room temperature, followed by incubation with CSP1 for thirty minutes in a total volume of 5 μL 30mM Tris, pH 8.5. When the culture reached OD620~0.08, cells were pelleted at 6,000xg, 5 min and resuspended in fresh C+Y. 100 μL of the culture was added to the Trypsin-AEBSF-CSP mixture, followed by transfer to a white-walled, clear-bottom 96-well plate and addition of 5 μL of 10 mg/mL luciferin (Sigma #L6882). Luminescence and OD620 measurements were taken every 30 minutes in a Biotek Cytation 3.
# S. pneumoniae D39 = experiment: in vivo recombination frequency, poly (I:C) / AEBSF treated mice; details: Balb/cJ mice; poly (I:C) 50 μL of 1 mg/mL IN daily 4 days vs vehicle; AEBSF 125 μg IN prior to poly (I:C) vs poly (I:C) without inhibitor; 20 h after challenge
# porcine trypsin = biological target: T1, porcine trypsin (Sus scrofa, UniProt P00761); experiment: Mass spectrometry of CSP cleavage by porcine trypsin; type: in vitro ADME; details: 30 min, room temperature
# T1 construct: purchased Promega V5280
# Experimental: Fig 1 Serine proteases cleave competence-stimulating peptide of S. pneumoniae. (A) Sequence of competence-stimulating peptide 1 (CSP1) and peptide 2 (CSP2). Red arrows indicate potential cleavage sites by trypsin-like serine proteases. (B) Mass spectrometry analysis of cleaved residues of CSP1 upon incubation with no trypsin (grey) or with porcine trypsin (black) for 30 minutes. (C) Mass spectrometry analysis of cleaved residues of CSP1 upon incubation with no trypsin (grey) or with human airway trypsin (HAT) (black) for 30 minutes. (D) Mass spectrometry analysis of cleaved residues of CSP2 upon incubation with no trypsin (grey) or with porcine trypsin (black) for 30 minutes. (E) Mass spectrometry analysis of cleaved residues of CSP2 upon incubation with no trypsin (grey) or with HAT (black) for 30 minutes. (B-E) The fraction of each peptide detected by mass spectrometry was calculated by dividing the area of the cleaved peptide by the total area of all peptides. In the case of two cleavage sites on the same peptide, the fraction was equally attributed to both cleavage sites. […]
# CSPs was incubated with either porcine trypsin gold (Promega #V5280) or human airway trypsin-like protease (HAT; Bio-techne R&D #2695-SE-010) for thirty minutes, room temperature. […] The eluted peptides were ionized by electrospray ionization and detected by an inline mass spectrometer (Thermo Orbitrap Fusion). […]
# porcine trypsin gold = porcine trypsin gold (Promega #V5280); details: room temperature, up to thirty minutes
# T1 sequence (P00761 9-231): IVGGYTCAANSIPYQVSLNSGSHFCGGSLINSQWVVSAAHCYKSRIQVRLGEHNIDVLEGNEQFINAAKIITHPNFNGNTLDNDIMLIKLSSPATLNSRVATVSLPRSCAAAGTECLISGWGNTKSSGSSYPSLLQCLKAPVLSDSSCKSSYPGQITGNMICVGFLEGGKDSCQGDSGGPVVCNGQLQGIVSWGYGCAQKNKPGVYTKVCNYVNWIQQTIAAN
molecule,measurement,setting,value
"Cl.NCCc1ccc(S(=O)(=O)F)cc1 [AEBSF, 4-(2-Aminoethyl) benzenesulfonyl fluoride hydrochloride]",recombination frequency with CSP1 incubated with PPT or HAT pre-incubated with AEBSF,"D39x comC^-; 0.1 mM AEBSF, protease pre-incubated 15 min",at a similar level as that of the no trypsin control
same,protease-caused reduction of recombination frequency when proteases were incubated with AEBSF,TIGR4,abrogated
same,recombination frequency with CSP1 incubated with AEBSF alone,"D39x; CSP1 in PBS with increasing AEBSF, no lung homogenate, D39x and D39x comC^- (S3 Fig)",did not increase
same,recombination frequency with CSP1 incubated with lung homogenates treated with AEBSF,D39x; mouse lung homogenate incubated 30 min with 1 or 2 mM AEBSF vs 0 mM,increased
same,ex vivo recombination frequency with homogenized lungs of mice treated in vivo,D39x,restored
same,levels of serine proteases in the lung homogenates,"[1]; lung homogenate incubated with 1 or 2 mM AEBSF, BOC substrate fluorescence",decreased
same,Protease levels in lungs and sera of treated mice,[1]; BOC substrate fluorescence,reduced
same,Growth of S. pneumoniae (OD620),DLA3 [2],not reduced
same,PPT-caused reduction of DLA3 luminescence when PPT was pre-incubated with AEBSF,DLA3 [3],abrogated
same,in vivo recombination frequency of D39 in lungs and blood,S. pneumoniae D39,higher frequency
CC[C@H](C)[C@H](NC(=O)[C@H](Cc1ccccc1)NC(=O)[C@H](CC(=O)O)NC(=O)[C@H](CCCNC(=N)N)NC(=O)[C@H](Cc1ccccc1)NC(=O)[C@H](Cc1ccccc1)NC(=O)[C@H](CCCCN)NC(=O)[C@H](CO)NC(=O)[C@H](CC(C)C)NC(=O)[C@H](CCCNC(=N)N)NC(=O)[C@H](CCSC)NC(=O)[C@@H](N)CCC(=O)O)C(=O)N[C@@H](CC(C)C)C(=O)N[C@@H](CCC(N)=O)C(=O)N[C@@H](CCCNC(=N)N)C(=O)N[C@@H](CCCCN)C(=O)N[C@@H](CCCCN)C(=O)O [CSP1],"preferential cleavage site, porcine trypsin",porcine trypsin,R15 followed by K6 and R9
same,HAT concentration to reduce the recombination frequency to below 5% of 0 trypsin,D39x comC^-,1 µg/mL
same,PPT concentration to reduce the recombination frequency to below 5% of 0 trypsin,D39x comC^-,0.05 µg/mL
same,recombination frequency after incubation of CSP with mouse lung homogenate,"D39x; mouse lung homogenate, ex vivo",reduced
CC[C@H](C)[C@H](NC(=O)[C@H](Cc1ccccc1)NC(=O)[C@H](CC(=O)O)NC(=O)[C@H](CCCNC(=N)N)NC(=O)[C@H](Cc1ccccc1)NC(=O)[C@H](Cc1ccccc1)NC(=O)[C@H](Cc1c[nH]cn1)NC(=O)[C@H](CO)NC(=O)[C@H](CC(C)C)NC(=O)[C@H](CCCNC(=N)N)NC(=O)[C@H](CCSC)NC(=O)[C@@H](N)CCC(=O)O)C(=O)N[C@@H](CC(C)C)C(=O)N[C@@H](CCC(N)=O)C(=O)N[C@@H](CCCNC(=N)N)C(=O)N[C@@H](CCCCN)C(=O)N[C@@H](CCCCN)C(=O)O [K6H],reduction of recombination frequency upon incubation of modified CSP with trypsin-like proteases,D39x comC^-,similarly to that of unmodified CSP1
CC[C@H](C)[C@H](NC(=O)[C@H](Cc1ccccc1)NC(=O)[C@H](CC(=O)O)NC(=O)[C@H](Cc1c[nH]cn1)NC(=O)[C@H](Cc1ccccc1)NC(=O)[C@H](Cc1ccccc1)NC(=O)[C@H](CCCCN)NC(=O)[C@H](CO)NC(=O)[C@H](CC(C)C)NC(=O)[C@H](CCCNC(=N)N)NC(=O)[C@H](CCSC)NC(=O)[C@@H](N)CCC(=O)O)C(=O)N[C@@H](CC(C)C)C(=O)N[C@@H](CCC(N)=O)C(=O)N[C@@H](CCCNC(=N)N)C(=O)N[C@@H](CCCCN)C(=O)N[C@@H](CCCCN)C(=O)O [R9H],HAT concentration to reduce recombination frequency below 5% of 0 trypsin: times less compared to unmodified CSP1,D39x comC^-; CSP incubated with HAT,2 times
same,HAT concentration to reduce the recombination frequency to below 5% of 0 trypsin,D39x comC^-,0.5 µg/mL
same,PPT concentration to reduce recombination frequency below 5% of 0 trypsin: times less compared to unmodified CSP1,D39x comC^-; CSP incubated with PPT,5 times
same,PPT concentration to reduce the recombination frequency to below 5% of 0 trypsin,D39x comC^-,0.01 µg/mL
same,reduction of recombination frequency upon incubation of modified CSP with trypsin-like proteases,D39x comC^-,to a greater extent than the unmodified CSP1
CC[C@H](C)[C@H](NC(=O)[C@H](Cc1ccccc1)NC(=O)[C@H](CC(=O)O)NC(=O)[C@H](CCCNC(=N)N)NC(=O)[C@H](Cc1ccccc1)NC(=O)[C@H](Cc1ccccc1)NC(=O)[C@H](CCCCN)NC(=O)[C@H](CO)NC(=O)[C@H](CC(C)C)NC(=O)[C@H](CCCNC(=N)N)NC(=O)[C@H](CCSC)NC(=O)[C@@H](N)CCC(=O)O)C(=O)N[C@@H](CC(C)C)C(=O)N[C@@H](CCC(N)=O)C(=O)N[C@@H](Cc1c[nH]cn1)C(=O)N[C@@H](CCCCN)C(=O)N[C@@H](CCCCN)C(=O)O [R15H],reduction of recombination frequency upon incubation of modified CSP with trypsin-like proteases,D39x comC^-,similarly to that of unmodified CSP1
EMRISRIILDFLFLRKK,cleaved bond,porcine trypsin gold,R6-I7 and E-M and D-F
poly (I:C),ex vivo recombination frequency with homogenized lungs of mice treated in vivo,D39x,reduced
same,Protease levels in lungs and sera of treated mice,[1]; BOC substrate fluorescence,higher
same,"protease levels in inflamed lungs, equated to recombinant HAT","[1]; recombinant HAT standard, 35000 RFU = 0.05 μg/mL, non-inflamed lungs 0.079 (±0.010)",0.168 (±0.012) μg/mL
same,in vivo recombination frequency of D39 in lungs and blood,S. pneumoniae D39,significant reduction

# — PMC10259803 (PLOS Pathogens, 2023)
